In this test the target is T1, Bcl-2-like protein 2 (Homo sapiens, UniProt Q92843).
T1 sequence (Q92843 whole entry): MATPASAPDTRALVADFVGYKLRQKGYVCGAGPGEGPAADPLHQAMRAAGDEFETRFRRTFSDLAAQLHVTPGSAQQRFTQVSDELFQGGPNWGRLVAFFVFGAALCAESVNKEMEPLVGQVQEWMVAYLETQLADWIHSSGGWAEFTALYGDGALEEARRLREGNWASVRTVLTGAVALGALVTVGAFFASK
The test can be described thus: Inhibition of 5-carboxyfluorescein-labeled Flu-Bak-BH3 peptide binding to Bcl-w by fluorescence polarization assay.

The values that follow come from ChEMBL document CHEMBL1155094, “Isosteric exchange of the acylsulfonamide moiety in Abbott's Bcl-XL protein interaction antagonist” (Bioorg Med Chem Lett, 2008).

In general, Ki refers to a measure of affinity in units of concentration, obtained from inhibition or displacement.

For `CN(CC(=O)Nc1ccc(N2CCCCC2)c([N+](=O)[O-])c1)C(=O)c1ccc(-c2ccccc2)cc1`, the Ki was determined as 10.8 µM.

The compound `CN(CC(=O)Nc1ccc(NC23CC4CC(CC(C4)C2)C3)c([N+](=O)[O-])c1)C(=O)c1ccc(-c2ccccc2)cc1` came in with a Ki of 9.43 µM. As for `CN(CC(=O)Nc1ccc(N2CCSCC2)c([N+](=O)[O-])c1)C(=O)c1ccc(-c2ccccc2)cc1`, the figure is 13 µM.
